Results as given in ChEMBL document CHEMBL5331063, “Recent advances of β-catenin small molecule inhibitors for cancer therapy: Current development and future perspectives” (Eur J Med Chem, 2022).
pIC50, pKi: −log10 of the molar value. Values belong to the compound of their own block, whether it stands above or below them.

What was measured:
[1] = Inhibition of human beta-Catenin (138 to 686 residues)/C-terminal fluorescein-labeled human APC (1477 to 1519 residues) protein-protein interaction assessed as inhibition constant incubated for 30 mins by fluorescence polarization assay
[2] = test system: SW480; assay: Antiproliferative activity against human SW480 cells assessed as inhibition of cell growth by MTS assay; format: functional, cell-based
[3] = molecular target: T1, TCF4-CTNNB1 complex (Homo sapiens, UniProt P35222+Q9NQB0); assay: Inhibition of beta-Catenin/TCF4 (unknown origin) protein-protein interaction; format: protein-complex assay
T1 sequence (P35222 whole entry): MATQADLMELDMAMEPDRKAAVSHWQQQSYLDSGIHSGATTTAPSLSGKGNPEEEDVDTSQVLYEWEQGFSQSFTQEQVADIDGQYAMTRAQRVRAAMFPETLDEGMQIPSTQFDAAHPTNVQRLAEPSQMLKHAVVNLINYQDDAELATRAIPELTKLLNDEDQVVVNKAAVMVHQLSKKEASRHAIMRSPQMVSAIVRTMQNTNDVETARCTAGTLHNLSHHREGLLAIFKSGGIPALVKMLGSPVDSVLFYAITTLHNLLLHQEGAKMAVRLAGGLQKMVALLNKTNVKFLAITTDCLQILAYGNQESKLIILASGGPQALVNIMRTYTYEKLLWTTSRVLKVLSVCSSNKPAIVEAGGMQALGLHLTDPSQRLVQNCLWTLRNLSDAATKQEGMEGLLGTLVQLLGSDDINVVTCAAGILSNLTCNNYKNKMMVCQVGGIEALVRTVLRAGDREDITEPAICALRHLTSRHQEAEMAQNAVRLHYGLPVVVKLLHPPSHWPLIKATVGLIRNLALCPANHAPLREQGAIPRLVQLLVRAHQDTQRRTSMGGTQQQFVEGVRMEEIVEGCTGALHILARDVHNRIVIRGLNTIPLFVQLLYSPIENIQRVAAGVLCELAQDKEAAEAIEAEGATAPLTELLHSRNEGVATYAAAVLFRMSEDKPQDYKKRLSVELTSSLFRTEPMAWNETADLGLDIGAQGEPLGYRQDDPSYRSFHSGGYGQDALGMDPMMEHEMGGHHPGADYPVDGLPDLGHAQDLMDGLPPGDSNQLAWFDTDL
T1 sequence (P15884 whole entry): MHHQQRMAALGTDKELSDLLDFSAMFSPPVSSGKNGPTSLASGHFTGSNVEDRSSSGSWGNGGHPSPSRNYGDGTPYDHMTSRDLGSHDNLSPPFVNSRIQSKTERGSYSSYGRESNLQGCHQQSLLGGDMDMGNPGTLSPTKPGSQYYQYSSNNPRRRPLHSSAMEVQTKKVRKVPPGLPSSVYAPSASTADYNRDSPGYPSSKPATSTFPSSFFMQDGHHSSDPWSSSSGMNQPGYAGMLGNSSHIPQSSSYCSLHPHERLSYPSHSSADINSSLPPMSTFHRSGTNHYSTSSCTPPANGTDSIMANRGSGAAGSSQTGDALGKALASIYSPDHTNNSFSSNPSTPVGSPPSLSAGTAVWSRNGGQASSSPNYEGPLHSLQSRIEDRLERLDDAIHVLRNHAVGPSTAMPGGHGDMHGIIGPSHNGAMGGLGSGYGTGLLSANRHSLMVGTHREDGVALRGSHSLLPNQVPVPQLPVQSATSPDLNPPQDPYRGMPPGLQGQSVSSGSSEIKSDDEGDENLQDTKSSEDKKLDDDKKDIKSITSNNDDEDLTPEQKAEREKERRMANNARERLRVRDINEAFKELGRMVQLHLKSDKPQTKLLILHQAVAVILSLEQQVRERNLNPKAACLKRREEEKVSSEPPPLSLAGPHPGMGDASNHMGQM

[4] = molecular target: T2, Catenin beta-1/Cadherin-1 (Homo sapiens, UniProt P35222); assay: Inhibition of His6-tagged human beta-Catenin (138 to 686 residues)/C-terminal fluorescein-labeled human E-cadherin (819 to 873 residues) protein-protein interaction assessed as inhibition constant by AlphaScreen competitive assay
T2 sequence (P35222 whole entry): T1 sequence (P35222 whole entry)
T2 sequence (P12830 whole entry): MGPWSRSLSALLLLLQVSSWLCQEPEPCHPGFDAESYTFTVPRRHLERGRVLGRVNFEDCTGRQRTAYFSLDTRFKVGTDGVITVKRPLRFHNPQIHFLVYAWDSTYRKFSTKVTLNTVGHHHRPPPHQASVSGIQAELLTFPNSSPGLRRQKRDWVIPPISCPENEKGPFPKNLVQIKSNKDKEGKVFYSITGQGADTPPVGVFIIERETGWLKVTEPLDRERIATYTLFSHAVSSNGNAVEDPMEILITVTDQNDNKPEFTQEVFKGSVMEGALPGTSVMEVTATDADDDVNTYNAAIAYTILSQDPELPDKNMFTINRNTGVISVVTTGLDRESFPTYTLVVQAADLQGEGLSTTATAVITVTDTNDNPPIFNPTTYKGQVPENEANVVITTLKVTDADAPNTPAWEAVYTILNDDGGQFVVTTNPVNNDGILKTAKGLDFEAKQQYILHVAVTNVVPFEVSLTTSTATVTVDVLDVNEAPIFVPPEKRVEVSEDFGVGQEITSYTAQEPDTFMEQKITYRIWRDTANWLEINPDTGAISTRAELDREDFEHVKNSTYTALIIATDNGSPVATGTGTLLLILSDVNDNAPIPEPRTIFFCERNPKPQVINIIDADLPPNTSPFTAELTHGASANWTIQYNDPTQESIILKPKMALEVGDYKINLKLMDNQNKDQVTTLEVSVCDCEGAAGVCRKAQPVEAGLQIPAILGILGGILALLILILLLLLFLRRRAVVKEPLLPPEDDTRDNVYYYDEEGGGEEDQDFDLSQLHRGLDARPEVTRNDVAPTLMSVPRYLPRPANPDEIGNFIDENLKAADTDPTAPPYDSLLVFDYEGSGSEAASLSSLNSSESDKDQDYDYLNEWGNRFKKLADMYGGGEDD

[5] = molecular target: T1, TCF4-CTNNB1 complex; assay: Inhibition of beta-Catenin/GST-tagged TCF4 protein-protein interaction in human HCT-116 cells incubated for 24 hrs by immunoprecipitation assay; format: cell-based
[6] = molecular target: T1, TCF4-CTNNB1 complex; assay: Inhibition of human beta-Catenin/GST-tagged TCF4 (unknown origin) protein-protein interaction incubated for 2 hrs by ELISA assay; format: protein-complex assay
[7] = test system: HT-29; assay: Antiproliferative activity against human HT-29 cells assessed as inhibition of cell growth by MTS assay; format: functional, cell-based
[8] = test system: HCT-116; assay: Antiproliferative activity against human HCT-116 cells assessed as inhibition of cell growth by MTS assay; format: functional, cell-based
[9] = molecular target: T3, beta-catenin-B-cell lymphoma 9 protein complex (Homo sapiens, UniProt O00512+P35222); assay: Inhibition of Flag-tagged beta-Catenin (unknown origin)/Flag-tagged BCL9 (unknown origin) protein-protein interaction assessed as inhibition constant by ELISA assay; format: protein-complex assay
T3 sequence (P35222 whole entry): T1 sequence (P35222 whole entry)
T3 sequence (O00512 whole entry): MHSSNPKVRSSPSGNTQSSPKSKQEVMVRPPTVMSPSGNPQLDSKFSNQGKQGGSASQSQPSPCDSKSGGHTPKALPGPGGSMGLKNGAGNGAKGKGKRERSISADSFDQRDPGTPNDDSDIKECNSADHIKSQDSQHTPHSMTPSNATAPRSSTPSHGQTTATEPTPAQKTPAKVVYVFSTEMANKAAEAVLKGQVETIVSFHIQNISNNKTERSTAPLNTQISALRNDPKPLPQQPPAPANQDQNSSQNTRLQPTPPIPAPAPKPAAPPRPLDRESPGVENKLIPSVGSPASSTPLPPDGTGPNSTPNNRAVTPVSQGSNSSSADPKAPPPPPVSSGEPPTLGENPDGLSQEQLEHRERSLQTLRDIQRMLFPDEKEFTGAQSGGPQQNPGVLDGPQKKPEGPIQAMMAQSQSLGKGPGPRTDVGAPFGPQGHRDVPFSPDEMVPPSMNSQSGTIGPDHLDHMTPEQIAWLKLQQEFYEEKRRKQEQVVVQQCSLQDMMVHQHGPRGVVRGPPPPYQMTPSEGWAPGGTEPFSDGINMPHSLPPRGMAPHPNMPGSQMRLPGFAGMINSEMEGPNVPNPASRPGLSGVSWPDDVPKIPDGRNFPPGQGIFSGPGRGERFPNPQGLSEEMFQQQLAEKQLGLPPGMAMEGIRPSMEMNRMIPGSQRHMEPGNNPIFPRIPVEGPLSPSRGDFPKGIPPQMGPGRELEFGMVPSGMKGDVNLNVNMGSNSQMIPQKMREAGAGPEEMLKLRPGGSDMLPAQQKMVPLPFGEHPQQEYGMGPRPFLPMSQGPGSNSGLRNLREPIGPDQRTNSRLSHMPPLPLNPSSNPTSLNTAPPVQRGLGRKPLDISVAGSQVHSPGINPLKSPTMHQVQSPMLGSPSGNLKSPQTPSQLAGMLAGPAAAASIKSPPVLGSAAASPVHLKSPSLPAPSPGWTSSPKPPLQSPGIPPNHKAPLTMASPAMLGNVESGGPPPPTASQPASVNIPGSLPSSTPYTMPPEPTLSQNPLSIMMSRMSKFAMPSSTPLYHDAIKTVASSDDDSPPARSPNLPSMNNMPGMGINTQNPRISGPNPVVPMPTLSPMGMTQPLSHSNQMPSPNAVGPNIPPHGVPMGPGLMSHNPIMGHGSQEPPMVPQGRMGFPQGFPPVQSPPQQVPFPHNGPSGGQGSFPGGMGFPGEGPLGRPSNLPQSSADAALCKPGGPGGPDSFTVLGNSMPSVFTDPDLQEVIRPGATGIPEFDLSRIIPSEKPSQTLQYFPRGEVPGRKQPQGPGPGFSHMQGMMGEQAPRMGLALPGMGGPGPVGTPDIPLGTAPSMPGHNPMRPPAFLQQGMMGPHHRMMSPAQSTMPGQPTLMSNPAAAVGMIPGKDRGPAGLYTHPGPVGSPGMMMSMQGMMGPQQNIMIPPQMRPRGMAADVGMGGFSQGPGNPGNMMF

[10] = test system: HCT-116; assay: Antitumor activity against human HCT-116 cells xenografted with mouse assessed as reduction in tumor size at 100 mg/kg,ip administrated 3 times per week for 11 days; format: functional; set-up: scale not given: the % may be the effect or the level left; conditions: time 11 day
[11] = test system: HCT-116; assay: Antitumor activity against human HCT-116 cells xenografted with mouse assessed as reduction in tumor size at 20 mg/kg,ip administrated 3 times per week for 11 days; format: functional; set-up: scale not given: the % may be the effect or the level left; conditions: time 11 day
[12] = molecular target: T4, TCF4-CTNNB1 complex (Homo sapiens, UniProt P15884+P35222); assay: Inhibition of beta-Catenin (301 to 670 residues)/TCF4 protein-protein interaction in human HCT-116 cells incubated for 20 hrs by TOPFLASH luciferase reporter assay; format: cell-based
T4 sequence (P35222 whole entry): T1 sequence (P35222 whole entry)
T4 sequence (P15884 whole entry): T1 sequence (P15884 whole entry)

[13] = test system: NCM460; assay: Cytotoxicity against human NCM460 cells incubated for 48 hrs by MTT assay; format: toxicity, cell-based; conditions: ncm460, 48 h
[14] = test system: SW480; assay: Cytotoxicity against human SW480 cells incubated for 48 hrs by MTT assay; format: functional
[15] = test system: HCT-116; assay: Cytotoxicity against human HCT-116 cells incubated for 48 hrs by MTT assay; format: functional
[16] = Inhibition of Wnt1 signalling in human SW480 cells expressing ST-Luc incubated for 24 hrs by luciferase reporter assay; format: cell-based; conditions: SW480, 24 h
[17] = molecular target: T4, TCF4-CTNNB1 complex; assay: Inhibition of wild type beta-Catenin/TCF4 protein-protein interaction in human Hep3B cells incubated for 24 hrs by TOPFLASH reporter assay; format: cell-based
[18] = Inhibition of beta-Catenin S33Y mutant/TCF4 protein-protein interaction in human SNU-398 cells incubated for 24 hrs by TOPFLASH reporter assay; format: cell-based

Compound: C[C@H]1[C@H]2N(C(=O)CN(C)N2C(=O)NCc2ccccc2)[C@@H](Cc2ccc(OP(=O)(O)O)cc2)C(=O)N1Cc1cccc2cccnc12
pIC50 [3]: 6.82

Compound: O=C(Nc1ccc(O[C@H]2CCNC2)c(-c2ccc(F)cc2)c1)c1ccc(O[C@H]2CCNC2)c(-c2ccc(F)c(F)c2)c1
pKi [4]: 3.59

Compound: COC(=O)c1c(C)cc2c(c1O)[C@]1(O)C(=O)c3cc4c(c(O)c3C(=O)[C@]1(OC)[C@H](O)C2)C(=O)C=C(N[C@@H]1O[C@H](C)[C@@H](OC)[C@H](O)[C@@H]1OC)C4=O
pIC50 [6]: 6.19

Compound: COc1c(CC(C)OC(=O)Oc2ccc(O)cc2)c2c3c(CC(C)OC(=O)c4ccccc4)c(OC)c(=O)c4c(O)cc(OC)c(c5c(OC)cc(O)c(c1=O)c52)c43 (configuration not stated)
pIC50 [5]: 5.00

Compound: CC(C)c1cc2c(c(O)c1O)[C@@]1(C(=O)O)CCCC(C)(C)C1CC2 (some centres not stated)
pKi [9]: 5.48

Compound: O=c1ccc2cc(O)c(O)cc2o1 [ESCULETIN]
Activity [10]: 64%
Activity [11]: 44%

Compound: C=C1C(=O)C23[C@H](O)C[C@@H]4C(C)(C)[C@@H](OC(C)=O)CC[C@@]4(C)[C@@H]2[C@@H]2O[C@@H]2C1[C@H]3O (some centres not stated)
Activity [13]: 10%
Activity [14]: >95%
Activity [15]: >95%

Continued, values first:

pKi [1]: 4.06
pIC50 [2]: 3.63
Compound: COC(=O)[C@H](CCC(=O)O)NC(=O)[C@H](CC(=O)O)NC(=O)[C@H](Cc1ccc2ccccc2c1)NC(=O)Cc1cc2cc(Cl)ccc2[nH]1

pIC50 [5]: 5.00
pIC50 [6]: 5.39
Compound: COc1c(CC(C)OC(=O)c2c(C)cc(O)cc2C)c2c3c(CC(C)OC(=O)c4c(C)cc(O)cc4O)c(OC)c(=O)c4c(O)cc(OC)c(c5c(OC)cc(O)c(c1=O)c52)c43 (configuration not stated)

pIC50 [7]: 5.00
pIC50 [8]: 5.00
pIC50 [2]: 4.54
Compound: CCOC(=O)CC[C@H](NC(=O)[C@H](CC(=O)OCC)NC(=O)[C@H](Cc1ccc2ccccc2c1)NC(=O)Cc1cc2cc(Cl)ccc2[nH]1)C(=O)OC

pIC50 [12]: 6.28
Compound: COC(=O)c1cccc(NS(=O)(=O)c2ccc(OC)cc2)c1

pIC50 [12]: 6.23
Compound: COC(=O)c1cccc(NS(=O)(=O)c2ccc(C)cc2)c1

pIC50 [16]: 6.22
Compound: C=C1C(=O)[C@@]23[C@H](O)C[C@@H]4C(C)(C)CC[C@H](O)[C@@]4(COC(C)=O)[C@@H]2CC[C@H]1[C@H]3O

pIC50 [17]: 4.60
pIC50 [18]: 4.49
Compound: O=C(Nc1cnn(Cc2ccc(F)cc2)c1)C1CC1c1ccccc1 (configuration not stated)
